Reference: US20260102501A1, “ANTI-CANCER NUCLEAR HORMONE RECEPTOR-TARGETING COMPOUNDS” (Nuvation Bio Inc., priority 2022, published 2026)
Structures can show the parent of a compound that is named as a salt.

How the values were obtained:
[1] = target: T1, AR (cytosol from LnCaP cells) (Homo sapiens, UniProt P10275, T878A); experiment: AR binding assay (3H-R1881 displacement)
T1 sequence (P10275 1-920 T878A): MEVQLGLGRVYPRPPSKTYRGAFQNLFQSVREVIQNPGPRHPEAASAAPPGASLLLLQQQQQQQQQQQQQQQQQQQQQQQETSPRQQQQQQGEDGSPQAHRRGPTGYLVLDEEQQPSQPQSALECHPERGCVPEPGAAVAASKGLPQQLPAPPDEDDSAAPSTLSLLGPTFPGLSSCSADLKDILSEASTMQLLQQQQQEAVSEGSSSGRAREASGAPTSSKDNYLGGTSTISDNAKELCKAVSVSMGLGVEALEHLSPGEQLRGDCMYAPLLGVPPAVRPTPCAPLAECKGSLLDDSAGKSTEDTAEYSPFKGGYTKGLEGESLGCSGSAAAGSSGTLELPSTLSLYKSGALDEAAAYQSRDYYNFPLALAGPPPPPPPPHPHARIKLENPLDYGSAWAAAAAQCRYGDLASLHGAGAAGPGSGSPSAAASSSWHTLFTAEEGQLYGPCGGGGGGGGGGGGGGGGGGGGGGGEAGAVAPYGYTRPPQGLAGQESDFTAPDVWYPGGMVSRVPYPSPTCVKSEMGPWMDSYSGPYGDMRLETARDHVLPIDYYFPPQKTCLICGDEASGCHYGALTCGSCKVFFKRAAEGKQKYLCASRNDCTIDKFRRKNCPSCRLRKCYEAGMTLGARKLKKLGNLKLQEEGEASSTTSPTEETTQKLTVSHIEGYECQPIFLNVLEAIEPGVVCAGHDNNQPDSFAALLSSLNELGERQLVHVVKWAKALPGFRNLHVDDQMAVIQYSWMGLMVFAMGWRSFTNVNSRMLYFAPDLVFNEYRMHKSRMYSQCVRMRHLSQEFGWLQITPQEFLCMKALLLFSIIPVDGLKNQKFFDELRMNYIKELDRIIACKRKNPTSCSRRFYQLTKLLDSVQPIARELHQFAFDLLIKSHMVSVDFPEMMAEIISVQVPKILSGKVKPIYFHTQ
Description: The plate was then centrifuged at 3000 rpm for 30 minutes at 4° C.

22Rv1 cells = experiment: Cell viability assay (CellTiterGlo); settings: Homo sapiens, 22Rv1, 144 h, read-out: 22RV1 (IC50, nM)
[2] = target: T2, Progesterone PR-B receptors from human breast carcinoma T47D cells (Homo sapiens, UniProt P06401); experiment: PR binding assay ([3H] Progesterone displacement)
T2 sequence (P06401 1-933): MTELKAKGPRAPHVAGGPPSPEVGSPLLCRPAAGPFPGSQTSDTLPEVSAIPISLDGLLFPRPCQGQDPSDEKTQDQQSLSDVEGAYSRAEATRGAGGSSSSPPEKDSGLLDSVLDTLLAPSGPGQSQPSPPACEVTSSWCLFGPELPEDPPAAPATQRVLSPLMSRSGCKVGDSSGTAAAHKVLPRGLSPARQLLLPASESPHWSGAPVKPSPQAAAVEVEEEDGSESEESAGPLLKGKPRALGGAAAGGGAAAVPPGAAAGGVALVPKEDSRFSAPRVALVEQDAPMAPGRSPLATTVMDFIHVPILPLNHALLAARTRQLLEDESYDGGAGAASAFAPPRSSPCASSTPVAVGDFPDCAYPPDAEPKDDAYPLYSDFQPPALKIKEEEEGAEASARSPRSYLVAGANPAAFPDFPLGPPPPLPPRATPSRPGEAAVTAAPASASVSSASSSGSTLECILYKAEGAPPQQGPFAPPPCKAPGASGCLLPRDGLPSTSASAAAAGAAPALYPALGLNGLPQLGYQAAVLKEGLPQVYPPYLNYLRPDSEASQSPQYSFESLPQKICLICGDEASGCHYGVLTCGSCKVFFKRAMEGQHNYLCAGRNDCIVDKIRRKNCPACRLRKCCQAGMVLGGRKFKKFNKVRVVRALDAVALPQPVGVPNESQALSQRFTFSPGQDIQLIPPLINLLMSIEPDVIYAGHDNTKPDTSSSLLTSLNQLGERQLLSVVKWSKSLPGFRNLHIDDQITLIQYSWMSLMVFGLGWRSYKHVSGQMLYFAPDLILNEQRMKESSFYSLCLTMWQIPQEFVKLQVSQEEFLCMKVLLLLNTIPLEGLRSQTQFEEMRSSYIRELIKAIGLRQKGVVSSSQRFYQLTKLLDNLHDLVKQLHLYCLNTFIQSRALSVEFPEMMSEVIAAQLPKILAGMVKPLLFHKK

T47D cells = experiment: Cell viability assay (CellTiterGlo); format: cell-based; settings: Homo sapiens, 144 h, 6 days incubation, CellTiterGlo, read-out: T47D (IC50)
[3] = target: T3, Progesterone Receptor (PR)-LBD and coactivator peptide (Homo sapiens, UniProt P06401); experiment: PR coactivator antagonist assay; settings: 2.5 nM PR-LBD, 10 nM progesterone-induced fluorescence response
T3 sequence (P06401 679-913 limits assumed): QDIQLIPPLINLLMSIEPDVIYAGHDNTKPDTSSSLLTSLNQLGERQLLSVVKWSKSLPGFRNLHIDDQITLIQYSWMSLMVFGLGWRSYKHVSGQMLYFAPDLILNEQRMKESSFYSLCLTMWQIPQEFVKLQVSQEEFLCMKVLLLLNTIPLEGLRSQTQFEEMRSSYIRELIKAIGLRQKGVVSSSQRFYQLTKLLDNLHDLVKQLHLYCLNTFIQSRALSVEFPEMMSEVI

| SMILES | IC50 [1] | IC50 (22Rv1 cells) | IC50 [2] | IC50 (T47D cells) | PR antagonism [3] |
| --- | --- | --- | --- | --- | --- |
| CC[C@@]1(O)C(=O)OCc2c1cc1n(c2=O)Cc2cc3c(CN(C)C)c(OC(=O)N4CCN(CC5CCN(c6ccc(C(=O)N[C@H]7CC[C@H](Oc8ccc(C#N)c(Cl)c8C)CC7)nn6)CC5)CC4)ccc3nc2-1 [Compound 31, (S)-10-((Dimethylamino)methyl)-4-ethyl-4-hydroxy-3,14-dioxo-3,4,12,14-tetrahydro-1H-pyrano[3′,4′:6,7]indolizino[1,2-b]quinolin-9-yl 4-((1-(6-(((1r,4r)-4-(3-chloro-4-cyano-2-methylphenoxy)cyclohexyl)carbamoyl)pyridazin-3-yl)piperidin-4-yl)methyl)piperazine-1-carboxylate Formate] | < 10 nM | 101 to 1000 nM | < 10 nM | – | – |
| CC[C@@]1(O)C(=O)OCc2c1cc1n(c2=O)Cc2c-1nc1cc(F)c(C)c3c1c2[C@@H](N(C)C(=O)COCC1CCN(CCCCCCCN(C)c2ccc([C@H]4C[C@@]5(C)[C@@H](CC[C@]5(OC(C)=O)C(C)=O)[C@@H]5CCC6=CC(=O)CCC6=C54)cc2)CC1)CC3 [Compound 55, (8S,11R,13S,14S,17R)-17-acetyl-11-(4-((7-(4-((2-(((1S,9S)-9-ethyl-5-fluoro-9-hydroxy-4-methyl-10,13-dioxo-2,3,9,10,13,15-hexahydro-1H,12H-benzo[de]pyrano[3′,4′:6,7]indolizino[1,2-b]quinolin-1-yl)(methyl)amino)-2-oxoethoxy)methyl)piperidin-1-yl)heptyl)(methyl)amino)phenyl)-13-methyl-3-oxo-2,3,6,7,8,11,12,13,14,15,16,17-dodecahydro-1H-cyclopenta[a]phenanthren-17-yl acetate] | 10 to 100 nM | – | < 10 nM | 101 to 1000 nM | – |
| CC[C@@]1(O)C(=O)OCc2c1cc1n(c2=O)Cc2c-1nc1cc(F)c(C)c3c1c2[C@@H](NCC1CCN(CC2CCN(C(=O)CN(C)c4ccc([C@H]5C[C@@]6(C)[C@@H](CC[C@]6(OC(C)=O)C(C)=O)[C@@H]6CCC7=CC(=O)CCC7=C65)cc4)CC2)CC1)CC3 [Compound No. 51, (8S,11R,13S,14S,17R)-17-acetyl-11-(4-((2-(4-((4-((((1S,9S)-9-ethyl-5-fluoro-9-hydroxy-4-methyl-10,13-dioxo-2,3,9,10,13,15-hexahydro-1H,12H-benzo[de]pyrano[3′,4′:6,7]indolizino[1,2-b]quinolin-1-yl)amino)methyl)piperidin-1-yl)methyl)piperidin-1-yl)-2-oxoethyl)(methyl)amino)phenyl)-13-methyl-3-oxo-2,3,6,7,8,11,12,13,14,15,16,17-dodecahydro-1H-cyclopenta[a]phenanthren-17-yl acetate] | < 10 nM | 10 to 100 nM | < 10 nM | – | – |
| CC[C@@]1(O)C(=O)OCc2c1cc1n(c2=O)Cc2cc3c(CN(C)C)c(OCC4CCN(C(=O)CN(C)c5ccc([C@H]6C[C@@]7(C)[C@@H](CC[C@]7(OC(C)=O)C(C)=O)[C@@H]7CCC8=CC(=O)CCC8=C76)cc5)CC4)ccc3nc2-1 [Compound No. 19, (8S,11R,13S,14S,17R)-17-Acetyl-11-(4-((2-(4-((((S)-10-((dimethylamino)methyl)-4-ethyl-4-hydroxy-3,14-dioxo-3,4,12,14-tetrahydro-1H-pyrano[3′,4′:6,7]indolizino[1,2-b]quinolin-9-yl)oxy)methyl)-piperidin-1-yl)-2-oxoethyl)(methyl)amino)phenyl)-13-methyl-3-oxo-2,3,6,7,8,11,12,13,14,15,16,17-dodeca-hydro-1H-cyclopenta[a]phenanthren-17-yl acetate] | 10 to 100 nM | – | < 10 nM | 101 to 1000 nM | a (IC50 =< 10 nM) |
| CC[C@@]1(O)C(=O)OCc2c1cc1n(c2=O)Cc2cc3c(CN4CCN(CCCCCCN(C)c5ccc([C@H]6C[C@@]7(C)[C@@H](CC[C@]7(OC(C)=O)C(C)=O)[C@@H]7CCC8=CC(=O)CCC8=C76)cc5)CC4)c(O)ccc3nc2-1 [Compound 36, (8S,11R,13S,14S,17R)-17-acetyl-11-(4-((6-(4-(((S)-4-ethyl-4,9-dihydroxy-3,14-dioxo-3,4,12,14-tetrahydro-1H-pyrano[3′,4′:6,7]indolizino[1,2-b]quinolin-10-yl)methyl)piperazin-1-yl)hexyl)(methyl)amino)phenyl)-13-methyl-3-oxo-2,3,6,7,8,11,12,13,14,15,16,17-dodecahydro-1H-cyclopenta[a]phenanthren-17-yl acetate] | 10 to 100 nM | – | < 10 nM | 10 to 100 nM | – |
| CC[C@@]1(O)C(=O)OCc2c1cc1n(c2=O)Cc2cc3c(CN4CCN(C(=O)C5CCN(c6ccc(C(=O)N[C@H]7CC[C@H](Oc8ccc(C#N)c(Cl)c8C)CC7)nn6)CC5)CC4)c(OC(=O)N4C[C@H](C)N(C)C[C@H]4C)ccc3nc2-1 [Compound 30, (S)-10-((4-(1-(6-(((1r,4r)-4-(3-Chloro-4-cyano-2-methylphenoxy)cyclohexyl)carbamoyl)-pyridazin-3-yl)piperidine-4-carbonyl)piperazin-1-yl)methyl)-4-ethyl-4-hydroxy-3,14-dioxo-3,4,12,14-tetrahydro-1H-pyrano[3′,4′:6,7]indolizino[1,2-b]quinolin-9-yl (2R,5S)-2,4,5-trimethylpiperazine-1-carboxylate Formate] | < 10 nM | 101 to 1000 nM | < 10 nM | – | – |
| CC[C@@]1(O)C(=O)OCc2c1cc1n(c2=O)Cc2c-1nc1cc(F)c(C)c3c1c2[C@@H](NC(=O)COCCCCCCN(C)c1ccc([C@H]2C[C@@]4(C)[C@@H](CC[C@]4(OC(C)=O)C(C)=O)[C@@H]4CCC5=CC(=O)CCC5=C42)cc1)CC3 [Compound No. 47, (8S,11R,13S,14S,17R)-17-acetyl-11-(4-((6-(2-(((1S,9S)-9-ethyl-5-fluoro-9-hydroxy-4-methyl-10,13-dioxo-2,3,9,10,13,15-hexahydro-1H,12H-benzo[de]pyrano [3′,4′:6,7]indolizino[1,2-b]quinolin-1-yl)amino)-2-oxoethoxy)hexyl)(methyl)amino)phenyl)-13-methyl-3-oxo-2,3,6,7,8,11,12,13,14,15,16,17-dodecahydro-1H-cyclopenta[a]phenanthren-17-yl acetate] | 10 to 100 nM | – | < 10 nM | 10 to 100 nM | – |
